The target of test [1] is T1, SHP2 (Homo sapiens, UniProt Q06124).
T1 construct: the GST fusion of the PTP domains of SHP2, SHP1, and PTP1B were produced and purified as reported by us previously; GST; made in house
T1 sequence (Q06124 247-517 limits assumed): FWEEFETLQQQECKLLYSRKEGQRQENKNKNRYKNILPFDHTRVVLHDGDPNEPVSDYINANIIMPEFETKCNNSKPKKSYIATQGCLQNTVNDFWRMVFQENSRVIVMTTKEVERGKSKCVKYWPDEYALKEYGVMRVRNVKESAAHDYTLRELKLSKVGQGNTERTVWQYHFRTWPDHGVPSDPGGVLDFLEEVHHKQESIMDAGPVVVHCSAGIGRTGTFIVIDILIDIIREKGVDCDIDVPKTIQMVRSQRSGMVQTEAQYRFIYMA
The experiment in a line: PTPase assay, GST-fusion PTP domain of SHP2, DiFMUP substrate. It is filed as biochemical. The note with it: for fold difference: SHP2 IC50 relative to CNBCA. As to the method: After completion of synthesis, both CNBCA and CNBBA were purified on silica gel, and purity was determined by HPLC. The purified compounds were then tested for their effect on the SHP2 enzyme activity and on the activity of the selected control PTPs (SHP1 and PTP1B) by the phosphotyrosyl phosphatase (PTPase) assay as described previously.[30],[31] First, the GST fusion of the PTP domains of SHP2, SHP1, and PTP1B were produced and purified as reported by us previously.[32] The reactions were performed in a buffer containing 10 mM Tris-HCl (pH 7.2), 100 mM NaCl, 1 mM EDTA, 1 mM dithiothreitol (DTT), and 0.01% Tween-20. Briefly, CNBCA or CNBBA was added first in a serial dilution ranging from 100 μM to 97 nM followed by the enzymes (SHP2, SHP1, or PTP1B) to a final concentration of 1 nM. After 5 min of incubation at room temperature, the reactions were started by adding the artificial substrate DiFMUP (6,8-difluoro-4-methylumbelliferyl phosphate) to a final concentration of 20 μM for SHP2, 35 μM for SHP1, and 10 μM for PTP1B in a reaction volume of 100 μL; variations in DiFMUP concentrations reflect the reported Km values for the respective PTPs.[33] The complete mixture was incubated at 37 °C for 20 min, and fluorescence intensity was measured by the Synergy 4 plate reader at the excitation and emission wavelengths of 360 and 460 nm, respectively. The half inhibitory concentration (IC50) value of each compound was calculated and plotted using Graphpad Prism software.
We used the PTPase assay described previously[30],[31] to evaluate the effect of the newly synthesized compounds on the enzymatic activity of SHP2, SHP1, and PTP1B. The PTP domains of the indicated proteins were prepared as reported by us recently.[32] The artificial PTP substrate DiFMUP (6,8-Difluoro-4-Methylumbelliferyl Phosphate) was purchased from Invitrogen. The purified proteins were dialyzed into a phosphatase buffer containing 10 mM Tris-HCl ([…]), 100 mM NaCl, 1.0 mM EDTA, 1.0 mM dithiothreitol (DTT), and 0.01% Tween-20. Briefly, the PTPase reactions were performed in 100 μL volume containing 1 nM enzyme, inhibitors in serial dilutions (12 nM to 100 μM), and DiFMUP to a final concentration of 20 μM for SHP2, 35 μM for SHP1, and 10 μM for PTP1B. Differences in DiFMUP concentrations reflect the reported Km values for each PTP.[37] The mixtures were incubated at 37 °C for 20 min and transferred to 96 well plates, and the fluorescence intensity was measured by a Synergy 4 plate reader at the excitation and emission wavelengths of 360 and 460 nm, respectively. Graphpad Prism software was used to calculate the IC50 values.

For test [2], the target named is T2, SHP1 (Homo sapiens, UniProt P29350).
T2 construct: The GST fusion PTP domains of SHP1 and PTP1B were expressed and purified in a fashion similar to that of SHP2; GST; made in house
T2 sequence (P29350 244-515 limits assumed): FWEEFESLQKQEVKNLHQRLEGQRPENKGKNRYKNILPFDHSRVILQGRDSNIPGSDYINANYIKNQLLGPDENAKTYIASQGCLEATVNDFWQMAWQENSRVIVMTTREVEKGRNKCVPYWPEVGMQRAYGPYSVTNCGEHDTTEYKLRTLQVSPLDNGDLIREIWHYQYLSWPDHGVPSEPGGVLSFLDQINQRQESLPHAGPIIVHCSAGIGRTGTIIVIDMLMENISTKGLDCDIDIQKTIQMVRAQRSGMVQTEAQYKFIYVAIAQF
On the set-up: method as in PMID 33043190. As to conditions: previously shown; cited from earlier work.

Test [3] addresses T1, SHP2. On the set-up: method as in PMID 33043190. As to conditions: previously published parent compound, included for comparison; cited from earlier work.

The structures appear in SMILES notation. Read-outs that look alike come from different tables or passages of the source.

This is an account of results in article PMC10591299, “Targeting SHP2 with an Active Site Inhibitor Blocks Signaling and Breast Cancer Cell Phenotypes” (ACS Bio & Med Chem Au, 2023).

Turning to `CCCCCCCCCOc1ccc(-c2ccc(CC(=O)O)cc2)cc1CCCC(=O)O` [CNBBA, 4-(4′-(carboxymethyl)-4-(nonyloxy)-[1,1′-biphenyl]-3-yl) butanoic acid], in test [1] (PTP domain, 1 nM enzyme, 20 μM DiFMUP, 37 °C 20 min), the IC50 is 5.1 µM. In addition, the fold difference in test [1] was 5.8 fold.
For `CCCCCCCCCOc1c(CCCC(=O)O)cc(-c2ccc(C(=O)O)cc2)cc1CCCC(=O)O` [CNBDA], in test [1], the fold difference was found to be 5.7 fold. Moreover, in test [2], the “selectivity for inhibition of SHP2 over SHP1” value is listed as “approximately 25 fold”. Moreover, the half-maximal inhibitory concentration (IC50) in test [3] was 5 µM.
